Results taken from patent publication US7744910B2, “Compounds and compositions for delivering active agents” (Emisphere Technologies, Inc., priority 1998, dated 2010).
Several values for one entry are separate records, joined by “and”; a condition that tells them apart may be missing. Equal values may be shown once. Read-outs that look alike come from different tables or passages of the source.

What was measured:
[1] = PTH delivery in rats, oral (PO) and intracolonic (IC); serum PTH by radioimmunoassay; type: in vivo, Sprague-Dawley rats
Method: Oral gavage (PO) or intracolonic (IC) dosing solutions of delivery agent compound and parathyroid hormone residues 1-34 (PTH) (residues 1-38 for the solution with compound 103) were prepared. […] The final dosing solutions were prepared by mixing the compound solution with a PTH stock solution (typically having a concentration of 5 mg PTH/ml) and diluting to the desired volume (usually 3.0 ml).
The rats were administered one of the dosing solutions at 1 ml/kg for PO or 0.5 ml/kg for IC. Blood samples were collected serially from the tail artery for serum determination of PTH concentration. Serum PTH concentrations were quantified by a PTH radioimmunoassay kit (Kit # RIK 6101 from Peninsula Laboratories, Inc., San Carlos, Calif.).

[2] = Oral delivery of rhGH in rats; serum rhGH by immunoassay; type: in vivo, Sprague-Dawley rats
Method: Oral gavage (PO) dosing solutions of delivery agent compound and rhGH in phosphate buffer were prepared. […] The final dosing solutions were prepared by mixing the compound solution with an rhGH stock solution (typically having a concentration of 15 mg rhGH/ml) and diluting to the desired volume (usually 3.0 ml).
The rats were administered 1 ml/kg of the dosing solution. Blood samples were collected serially from the tail artery for determination of serum rhGH concentrations. Serum rhGH concentrations were quantified by an rhGH immunoassay test kit (Kit # KIF4015 from Genzyme Corporation Inc., Cambridge, Mass.).

[3] = Intracolonic delivery of heparin in rats; heparin activity by activated partial thromboplastin time (APTT); type: in vivo, Sprague-Dawley rats; details: IC
Method: Intracolonic dosing (IC) compositions containing delivery agent compound and heparin sodium USP in 25% aqueous propylene glycol were prepared by mixing. […] Typically, compound and heparin powders were mixed, 25% aqueous propylene glycol was added, NaOH solution was added, the contents sonicated, then diluted to a volume of 3.0. pH was checked and adjusted if necessary to pH=7-8.
The dosing solutions were administered to fasted rats at a volume dose of 1 ml/kg. Blood samples were collected by cardiac puncture following the administration of ketamine (44 mg/kg). Heparin activity was determined utilizing the activated partial thromboplastin time (APTT) according to the method of Henry, J. B., Clinical Diagnosis and Management by Laboratory Methods; Philadelphia, Pa.; W. B. Saunders (1979).

[4] = Oral delivery of salmon calcitonin (sCT) in rats; serum sCT by EIA; details: compound dose 50 mg/kg, sCT dose 25 μg/kg, modified EIA protocol
Method: (§1) Oral dosing (PO) compositions of delivery agent compound and salmon calcitonin (sCT) in water were prepared by mixing. 450 mg of compound was added to 2.0 ml of water. Either the sodium salt of the compound was used or the free acid was converted to the sodium salt by stirring the resultant solution and adding one equivalent of sodium hydroxide (1.0 N) and diluting with water. 90 μg sCT was added to the solution. Water was then added to bring the total volume to 3.0 ml. […] (For compounds 118 and 123, the solutions were diluted to 6.0 ml and the volume dose was doubled.) The total sCT concentration was 30 μg/ml.
(§2) Male Sprague-Dawley rats weighing between 200-25.0 g were fasted for 24 hours and were administered ketamine (44 mg/kg) and chlorpromazine (1.5 mg/kg) 15 minutes prior to dosing. The rats were administered 1 ml/kg of dosing solution (2 ml/kg for compounds 118 and 123). Blood samples were collected serially from the tail artery. Serum sCT was determined by testing with an EIA kit (Kit # EIAS-6003 from Peninsula Laboratories, Inc., San Carlos, Calif.). The standard protocol from the kit was modified for compounds 104 and 105 as follows: incubated with 50 μl peptide antibody for 2 hours with shaking in the dark, washed the plate, added serum and biotinylated peptide and diluted with 4 ml buffer, and shook overnight in the dark.

[5] = rat, in vivo, po, 150 mg/kg
Method: as §1, §2

[6] = PO, compound dose 300 mg/kg, PTH (1-34) dose 100 μg/kg
[7] = compound dose 300 mg/kg, rhGH dose 6 mg/kg
[8] = compound dose 50 mg/kg, heparin dose 25 mg/kg
[9] = compound dose 200 mg/kg, rhGH dose 3 mg/kg
[10] = PO, compound dose 100 mg/kg, PTH (1-34) dose 200 μg/kg

In the case of `Nc1ccc(F)cc1C(=O)Nc1ccc(CCCC(=O)O)cc1` [Compound 3], the “Mean Peak Serum PTH” value [1, 6] is reported as 222 ± 155 pg/mL and the “Mean Peak Serum [rhGH]” value [2, 7] is reported as 72 ± 45 ng/mL.
In the case of `CNc1ccccc1C(=O)Nc1ccc(CCC(=O)O)cc1` [Compound 7], the “Mean Peak APTT” value [3, 8] is reported as 59 ± 41 s.
For `CNc1ccccc1C(=O)Nc1ccc(CCCC(=O)O)cc1` [Compound 10], the “Mean Peak Serum PTH” value [1, 6] was 420 ± 335 pg/mL and the “Mean Peak Serum [rhGH]” value [2, 9] was 43 ± 65 ng/mL.
For `Cc1cc(C)c(O)c(C(=O)Nc2ccc(CCCC(=O)O)cc2)c1` [Compound 14], the “Mean Peak APTT” value [3, 8] was 54 ± 21 s.
For `Nc1ccc(Cl)cc1C(=O)NCCCCCCCC(=O)O` [Compound 40], the “Mean Peak Serum [rhGH]” value [2, 7] was 42 ± 80 ng/mL.
With `O=C(O)CCCCCCCNC(=O)c1cc(F)cc(F)c1O` [Compound 41] the “Mean Peak APTT” value [3, 8] was 41 ± 26 s.
With `O=C(O)CCCCCCCNC(=O)c1cc(Cl)cc(F)c1O` [Compound 45] the “Mean Peak Serum [rhGH]” value [2, 9] was 49 ± 56 ng/mL.
For `O=C(O)CCCCCCCNC(=O)Cc1ccc(O)cc1` [Compound 46], the “Mean Peak APTT” value [3, 8] was 52 ± 34 s.
For `O=C(O)CCCCCCCNC(=O)c1cc(Cl)cc(Br)c1O` [Compound 48], the “Mean Peak APTT” value [3, 8] was 75 ± 18 s.
For `O=C(O)CCCCCCCNC(=O)c1c(O)cccc1Cl` [Compound 51], the “Mean Peak APTT” value [3, 8] was 111 ± 49 s.
For `O=C(O)CCCCCCCNC(=O)c1cc(F)ccc1O` [Compound 54], the “Mean Peak APTT” value [3, 8] was 124 ± 137 s and the “Mean Peak Serum [rhGH]” value [2, 9] was 48 ± 33 ng/mL.
In the case of `Cc1cc(Cl)cc(C(=O)NCCCCCCCC(=O)O)c1O` [Compound 55], the “Mean Peak APTT” value [3, 8] is reported as 125 ± 195 s.
In the case of `Cc1cc(F)cc(C(=O)NCCCCCCCC(=O)O)c1O` [Compound 56], the “Mean Peak APTT” value [3, 8] is reported as 91 ± 75 s.
With `O=C(O)CCc1ccc(F)c(NC(=O)c2ccccc2O)c1` [Compound 60] the “Mean Peak APTT” value [3, 8] was 71 ± 43 s.
In the case of `O=C(O)CCCc1ccc(Nc2cc(=O)oc3ccccc23)cc1` [Compound 72], the “Mean Peak APTT” value [3, 8] is reported as 50 ± 18 s.
For `O=C(O)CCCCCCCCCNC(=O)c1ccccc1F` [Compound 85], the “Mean Peak APTT” value [3, 8] was 27 ± 4 s.
In the case of `O=C(O)CCCCCNC(=O)c1ccccc1F` [Compound 86], the “Mean Peak APTT” value [3, 8] is reported as 24 ± 1 s and 31 ± 11 s and the “Mean Peak Serum PTH” value [1, 10] is reported as 0 pg/mL.
With `O=C(O)CCCCCCCCCCNC(=O)c1ccccc1` [Compound 87] the “Mean Peak APTT” value [3, 8] was 21 ± 1 s and 23 ± 3 s.
For `O=C(O)CCCCCCCCCCNC(=O)c1ccccc1F` [Compound 88], the “Mean Peak APTT” value [3, 8] was 59 ± 47 s.
In the case of `O=C(O)CCCCCNC(=O)c1ccccc1` [Compound 89], the “Mean Peak APTT” value [3, 8] is reported as 33 ± 7 s and the “Mean Peak Serum PTH” value [1, 10] is reported as 27 ± 61 pg/mL.
With `COc1ccccc1C(=O)NCCCC(=O)O` [Compound 90] the “Mean Peak APTT” value [3, 8] was 26 ± 7 s and the “Mean Peak Serum PTH” value [1, 10] was 14 ± 21 pg/mL.
With `Cc1ccccc1C(=O)NCCCC(=O)O` [Compound 91] the “Mean Peak APTT” value [3, 8] was 24 ± 4 s and the “Mean Peak Serum PTH” value [1, 10] was 5 ± 12 pg/mL.
In the case of `O=C(O)CCCNC(=O)c1ccccc1F` [Compound 92], the “Mean Peak APTT” value [3, 8] is reported as 22 ± 2 s and the “Mean Peak Serum PTH” value [1, 10] is reported as 303 ± 427 pg/mL.
For `O=C(O)CCCNC(=O)c1ccccc1` [Compound 93], the “Mean Peak APTT” value ([3]; compound dose 25 mg/kg, heparin dose 50 mg/kg) was 22 ± 0 s and the “Mean Peak Serum PTH” value [1, 10] was 343 ± 155 pg/mL.
In the case of `COc1ccccc1C(=O)NCCCCCCCCCC(=O)O` [Compound 94], the “Mean Peak APTT” value [3, 8] is reported as 50 ± 28 s and the “Mean Peak Serum PTH” value [1, 10] is reported as 17 ± 38 pg/mL.
In the case of `Cc1ccccc1C(=O)NCCCCCCCCCCCC(=O)O` [Compound 95], the “Mean Peak APTT” value [3, 8] is reported as 30 ± 2 s.
With `COc1ccccc1C(=O)NCCCCCCCCCCCC(=O)O` [Compound 96] the “Mean Peak APTT” value [3, 8] was 72 ± 63 s.
With `O=C(O)CCCCCCCCCCCNC(=O)c1ccccc1F` [Compound 97] the “Mean Peak APTT” value [3, 8] was 33 ± 10 s.
With `O=C(O)CCCCCCCCCCCNC(=O)c1ccccc1` [Compound 98] the “Mean Peak APTT” value [3, 8] was 25 ± 5 s.
For `Cc1ccccc1C(=O)NCCCCCCCCCC(=O)O` [Compound 99], the “Mean Peak APTT” value [3, 8] was 34 ± 7 s.
In the case of `O=C(O)CCCCCCCCCNC(=O)c1ccccc1` [Compound 100], the “Mean Peak APTT” value [3, 8] is reported as 31 ± 8 s.
In the case of `Cc1ccccc1C(=O)NCCCCCC(=O)O` [Compound 101], the “Mean Peak APTT” value [3, 8] is reported as 26 ± 5 s.
In the case of `COc1ccc(C(=O)NCC(=O)O)c(O)c1` [Compound 102], the “Mean Peak APTT” value [3, 8] is reported as 24.8 ± 0.9 s and 24.7 ± 6.5 s.
With `O=C(O)CCNC(=O)c1ccccc1O` [Compound 103] the “Mean Peak APTT” value [3, 8] was 21.9 ± 2.0 s and the “Mean Peak Serum PTH” value ([1]; IC, compound dose 100 mg/kg, PTH residues 1-38 dose 25 μg/kg) was 38.53 ± 30.9 pg/mL.
In the case of `COc1ccc(C(=O)Nc2ccc(CCCC(=O)O)cc2)c(O)c1` [Compound 104], the “Mean Peak Serum PTH” value [1, 10] is reported as 286.35 ± 191.58 pg/mL and the “Serum sCT (pg/ml) ± SD (SE)” value [4] is reported as 287 ± 104 pg/mL.
In the case of `O=C(O)CCCNC(=O)c1cc(Cl)ccc1O` [Compound 105], the “Serum sCT (pg/ml) ± SD (SE)” value [4] is reported as 583 ± 140 pg/mL.
For `COc1ccc(C(=O)NCCCC(=O)O)c(O)c1` [Compound 106], the “Mean Peak APTT” value [3, 8] was 48 ± 16.9 s and 27.7 ± 12.6 s.
With `COc1ccc(C(=O)NCCCCCC(=O)O)c(O)c1` [Compound 107] the “Mean Peak APTT” value [3, 8] was 26.2 ± 6.1 s.
In the case of `COc1ccc(C(=O)NCCCCCCCCCC(=O)O)c(O)c1` [Compound 108], the “Mean Peak APTT” value [3, 8] is reported as 72.9 ± 28.9 s.
With `COc1ccc(C(=O)NCCCCCCCCCCCC(=O)O)c(O)c1` [Compound 109] the “Mean Peak APTT” value [3, 8] was 24.2 ± 1.7 s.
For `O=C(O)CNC(=O)c1ccccc1` [Compound 110], the “Mean Peak APTT” value [3, 8] was 26.5 ± 4.7 s and 23.4 ± 0.7 s.
In the case of `Cc1ccccc1C(=O)NCC(=O)O` [Compound 111], the “Mean Peak APTT” value [3, 8] is reported as 24.4 ± 3.3 s.
In the case of `COc1ccccc1C(=O)NCC(=O)O` [Compound 112], the “Mean Peak APTT” value [3, 8] is reported as 28.7 ± 11.5 s.
With `O=C(O)CNC(=O)c1ccccc1F` [Compound 113] the “Mean Peak APTT” value [3, 8] was 20.4 s.
In the case of `O=C(O)CCCC(=O)Nc1cc(Cl)ccc1O` [Compound 119], the “Serum sCT (pg/ml) ± SD (SE)” value [5] is reported as 95 ± 119 (53) pg/ml.
In the case of `O=C(O)CCCCCC(=O)Nc1cc(Cl)ccc1O` [Compound 120], the “Mean Peak APTT” value [3, 8] is reported as 42 ± 34 s.
For `O=C(O)CCCCCCCC(=O)Nc1cc(Cl)ccc1O` [Compound 122], the “Serum sCT (pg/ml) ± SD (SE)” value [5] was 187 ± 79 (36) pg/ml.
With `O=C(O)CCCCCCCCC(=O)Nc1cc(Cl)ccc1O` [Compound 123] the “Serum sCT (pg/ml) ± SD (SE)” value [5] was 0 pg/mL.
